# Counter-ions that a name gives are not always drawn.
# How the values were obtained:
# B1R receptor of the rat = target: T1, B1R receptor of the rat (Rattus norvegicus, UniProt P97583); assay: Functional study on the bradykinin receptor 1 (B1R), FLIPR Ca2+ assay, rB1R cells; type: cell-based; details: agonist Des-Arg9-bradykinin 100 nM, % inhibition compared with the maximum achievable inhibition; for inhibition at 10 µM: CHO-K1, test substance 10 μM, read-out: B1R Antagonism, rat [10 μM] % Inhibition
# T1 construct: host or cells: CHO K1 cells (Chinese hamster ovary), stably transfected
# T1 sequence (P97583 1-337): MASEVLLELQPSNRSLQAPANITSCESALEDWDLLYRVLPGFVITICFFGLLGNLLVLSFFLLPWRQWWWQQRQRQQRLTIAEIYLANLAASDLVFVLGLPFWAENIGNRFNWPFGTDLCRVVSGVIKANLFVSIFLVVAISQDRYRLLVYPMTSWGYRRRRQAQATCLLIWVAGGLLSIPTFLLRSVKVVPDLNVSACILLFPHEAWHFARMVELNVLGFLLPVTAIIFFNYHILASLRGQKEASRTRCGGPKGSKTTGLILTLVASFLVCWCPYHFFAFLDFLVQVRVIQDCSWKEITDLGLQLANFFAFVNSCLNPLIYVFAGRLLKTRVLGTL
# Procedure, shortened: (§1)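 CHO K1 cells stably expressing human or rat B1R, Fluo-4-loaded; test compound 10 μM added first (activation % vs agonist), then after 10 min 0.5 nM Lys-Des-Arg9-bradykinin (human) or 100 nM Des-Arg9-bradykinin (rat). Ca2+ peak fluorescence by FLIPR; % inhibition relative to maximum achievable inhibition.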
# human B1R receptor = target: T2, human B1R receptor (Homo sapiens, UniProt P46663); assay: Functional study on the bradykinin receptor 1 (B1R), FLIPR Ca2+ assay, hB1R cells; type: cell-based; details: agonist Lys-Des-Arg9-bradykinin 0.5 nM, % inhibition compared with the maximum achievable inhibition; for inhibition at 10 µM: CHO-K1, test substance 10 μM, read-out: B1R Antagonism, human [10 μM] % Inhibition
# T2 construct: host or cells: CHO K1 cells (Chinese hamster ovary), stably transfected
# T2 sequence (P46663 1-353): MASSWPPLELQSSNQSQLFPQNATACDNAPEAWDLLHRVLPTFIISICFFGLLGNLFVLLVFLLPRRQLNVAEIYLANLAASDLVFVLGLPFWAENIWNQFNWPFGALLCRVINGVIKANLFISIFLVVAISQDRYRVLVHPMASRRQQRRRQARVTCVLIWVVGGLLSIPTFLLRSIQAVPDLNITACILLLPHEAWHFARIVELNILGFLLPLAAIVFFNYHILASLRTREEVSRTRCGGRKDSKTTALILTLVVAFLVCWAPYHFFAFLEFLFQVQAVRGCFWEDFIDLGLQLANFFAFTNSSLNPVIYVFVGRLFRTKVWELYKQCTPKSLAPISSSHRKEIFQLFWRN
# Procedure, shortened: as §1
SMILES,inhibition at 10 µM (B1R receptor of the rat) [%],inhibition at 10 µM (human B1R receptor) [%],"B1R Antagonism, rat [10 μM] % Inhibition (B1R receptor of the rat; test substance 10 μM, rB1R CHO K1 cells) [%]","B1R Antagonism, human [10 μM] % Inhibition (human B1R receptor; test substance 10 μM, hB1R CHO K1 cells) [%]"
"COc1ccc(S(=O)(=O)N2Cc3ccccc3C[C@H]2COCC(=O)N2CCC(CCN3CCCC3)CC2)cc1 [Example 182, (S)-2-((2-(4-methoxyphenylsulfonyl)-1,2,3,4-tetrahydroisoquinolin-3-yl)methoxy)-1-(4-(2-(pyrrolidin-1-yl)ethyl)piperidin-1-yl)ethanone]",99.7,91.1,–,–
"O=C(COC[C@@H]1Cc2ccccc2CN1S(=O)(=O)c1ccc(Cl)cc1Cl)N1CCC(CCN2CCCC2)CC1 [Example 183, (S)-2-((2-(2,4-dichlorophenylsulfonyl)-1,2,3,4-tetrahydroisoquinolin-3-yl)methoxy)-1-(4-(2-(pyrrolidin-1-yl)ethyl)piperidin-1-yl)ethanone]",96.9,100,–,–
"COc1cc(C)c(S(=O)(=O)N2Cc3ccccc3C[C@H]2COCC(=O)N2CCN(CC3CCN(C)CC3)CC2)c(C)c1 [Example 185, (S)-2-((2-(4-methoxy-2,6-dimethylphenylsulfonyl)-1,2,3,4-tetrahydroisoquinolin-3-yl)methoxy)-1-(4-((1-methylpiperidin-4-yl)methyl)piperazin-1-yl)ethanone]",97.9,105,–,–
"COc1cc(C)c(S(=O)(=O)N2Cc3ccccc3C[C@H]2COCC(=O)N2CCC(CCN3CCCC3)CC2)c(C)c1 [Example 187, (S)-2-((2-(4-methoxy-2,6-dimethylphenylsulfonyl)-1,2,3,4-tetrahydroisoquinolin-3-yl)methoxy)-1-(4-(2-(pyrrolidin-1-yl)ethyl)piperidin-1-yl)ethanone]",102,100,–,–
"COc1cc(C)c(S(=O)(=O)N2CCCCC2COCC(=O)N2CCC(COc3ccncc3)CC2)c(C)c1 (stereo not drawn) [Example 188, 2-((1-(4-methoxy-2,6-dimethylphenylsulfonyl)piperidin-2-yl)methoxy)-1-(4-((pyridin-4-yloxy)methyl)piperidin-1-yl)ethanone]",102,102,–,–
"COc1cc(C)c(S(=O)(=O)N2CCC[C@H]2COCC(=O)N2CCC(CCN3CCCC3)CC2)c(C)c1 [Example 190, (S)-2-((1-(4-methoxy-2,6-dimethylphenylsulfonyl)pyrrolidin-2-yl)methoxy)-1-(4-(2-(pyrrolidin-1-yl)ethyl)piperidin-1-yl)ethanone hydrochloride]",102,102,–,–
"COc1cc(C)c(S(=O)(=O)N2CCCCC2COCC(=O)N(C)CCC2CCC(N3CCCC3)CC2)c(C)c1 (stereo not drawn) [Example 194, 2-((1-(4-methoxy-2,6-dimethylphenylsulfonyl)piperidin-2-yl)methoxy)-N-methyl-N-(2-(4-(pyrrolidin-1-yl)cyclohexyl)ethyl)acetamide]",100,103,–,–
"COc1cc(C)c(S(=O)(=O)N2CCCCC2COCC(=O)NCc2cccc(Oc3cnccn3)c2)c(C)c1 (stereo not drawn) [Example 195, 2-((1-(4-methoxy-2,6-dimethylphenylsulfonyl)piperidin-2-yl)methoxy)-N-(3-(pyrazin-2-yloxy)benzyl)acetamide]",98.8,85.1,–,–
"COc1cc(C)c(S(=O)(=O)N2CCCCC2COCC(=O)NCc2ccc(Oc3cnccn3)cc2)c(C)c1 (stereo not drawn) [Example 196, 2-((1-(4-methoxy-2,6-dimethylphenylsulfonyl)piperidin-2-yl)methoxy)-N-(4-(pyrazin-2-yloxy)benzyl)acetamide]",98.8,100,–,–
"COc1cc(C)c(S(=O)(=O)N2CCCCC2COCC(=O)N2CCN(Cc3nc(-c4ccccc4)[nH]c3Cl)CC2)c(C)c1 (stereo not drawn) [Example 197, 1-(4-((5-chloro-2-phenyl-1H-imidazol-4-yl)methyl)piperazin-1-yl)-2-((1-(4-methoxy-2,6-dimethylphenylsulfonyl)piperidin-2-yl)methoxy)ethanone]",100,104,–,–

# The next lines start with the values.
inhibition at 10 µM (B1R receptor of the rat) [%],inhibition at 10 µM (human B1R receptor) [%],"B1R Antagonism, rat [10 μM] % Inhibition (B1R receptor of the rat; test substance 10 μM, rB1R CHO K1 cells) [%]","B1R Antagonism, human [10 μM] % Inhibition (human B1R receptor; test substance 10 μM, hB1R CHO K1 cells) [%]",SMILES
86.3,103,–,–,"CN1CCC(N2CCN(C(=O)COCC3CCCCN3S(=O)(=O)c3cccc4cccnc34)CC2)CC1 (stereo not drawn) [Example 175, 1-(4-(1-methylpiperidin-4-yl)piperazin-1-yl)-2-((1-(quinolin-8-ylsulfonyl)piperidin-2-yl)methoxy)ethanone dihydrochloride]"
36.5,-24.8,–,–,"CN1CCC(N2CCN(C(=O)COCC3CCCCN3S(=O)(=O)c3cccc4cnccc34)CC2)CC1 (stereo not drawn) [Example 176, 2-((1-(isoquinolin-5-ylsulfonyl)piperidin-2-yl)methoxy)-1-(4-(1-methylpiperidin-4-yl)piperazin-1-yl)ethanone dihydrochloride]"
100,104,–,–,"COc1cc(C)c(S(=O)(=O)N2CCCC[C@@H]2COCC(=O)N2CCN(C3CCN(C)CC3)CC2)c(C)c1 [Example 177, (R)-2-((1-(4-methoxy-2,6-dimethylphenylsulfonyl)piperidin-2-yl)methoxy)-1-(4-(1-methylpiperidin-4-yl)piperazin-1-yl)ethanone dihydrochloride]"
99.8,102,–,–,"CN1CCC(N2CCN(C(=O)COCC3Cc4ccccc4CN3S(=O)(=O)c3ccc4ccccc4c3)CC2)CC1 (stereo not drawn) [Example 178, 1-(4-(1-methylpiperidin-4-yl)piperazin-1-yl)-2-((2-(naphthalen-2-ylsulfonyl)-1,2,3,4-tetrahydroisoquinolin-3-yl)methoxy)ethanone dihydrochloride]"
100,104,–,–,"CN1CCC(N2CCN(C(=O)COCC3CCCCN3S(=O)(=O)c3ccc4c(c3)CCCC4)CC2)CC1 (stereo not drawn) [Example 179, 1-(4-(1-methylpiperidin-4-yl)piperazin-1-yl)-2-((1-(5,6,7,8-tetrahydronaphthalen-2-ylsulfonyl)piperidin-2-yl)methoxy)ethanone dihydrochloride]"
–,–,98.6,104,"COc1cc(C)c(S(=O)(=O)N2CCC[C@H]2COCC(=O)N2CCN(C3CCN(C)CC3)CC2)c(C)c1 [Example 180, (S)-2-((1-(4-methoxy-2,6-diimethylphenylsulfonyl)pyrrolidin-2-yl)methoxy)-1-(4-(1-methylpiperidin-4-yl)piperazin-1-yl)ethanone]"
98.5,105,–,–,"COc1cc(C)c(S(=O)(=O)N2CCC[C@H]2COCC(=O)N2CCN(CC3CCN(C)CC3)CC2)c(C)c1 [Example 181, (S)-2-((1-(4-methoxy-2,6-dimethylphenylsulfonyl)pyrrolidin-2-yl)methoxy)-1-(4-((1-methylpiperidin-4-yl)methyl)piperazin-1-yl)ethanone]"
99,105,–,–,"CN1CCC(CN2CCN(C(=O)COC[C@@H]3Cc4ccccc4CN3S(=O)(=O)c3ccc(Cl)cc3Cl)CC2)CC1 [Example 184, (S)-2-((2-(2,4-dichlorophenylsulfonyl)-1,2,3,4-tetrahydroisoquinolin-3-yl)methoxy)-1-(4-((1-methylpiperidin-4-yl)methyl)piperazin-1-yl)ethanone]"
97.1,106,–,–,"COc1cc(C)c(S(=O)(=O)N2CCCC[C@H]2COCC(=O)N2CCC(Oc3ccncc3)CC2)c(C)c1 [Example 186, (S)-2-((1-(4-methoxy-2,6-dimethylphenylsulfonyl)piperidin-2-yl)methoxy)-1-(4-(pyridin-4-yloxy)piperidin-1-yl)ethanone hydrochloride]"
86.4,70.7,–,–,"COc1ccc(S(=O)(=O)N2Cc3ccccc3C[C@H]2COCC(=O)N2CCN(CC3CCN(C)CC3)CC2)cc1 [Example 189, (S)-2-((2-(4-methoxyphenylsulfonyl)-1,2,3,4-tetrahydroisoquinolin-3-yl)methoxy)-1-(4-((1-methylpiperidin-4-yl)methyl)piperazin-1-yl)ethanone dihydrochloride]"
100,106,–,–,"COc1cc(C)c(S(=O)(=O)N2CCCC2COCC(=O)N2CCN(C3CCN(C)CC3)CC2)c(C)c1 (stereo not drawn) [Example 192, 2-((1-(4-methoxy-2,6-dimethylphenylsulfonyl)pyrrolidin-2-yl)methoxy)-1-(4-(1-methylpiperidin-4-yl)piperazin-1-yl)ethanone]"
